Values of other authors, collected in patent publication US20100012891A1, “Tooth Whitening Compositions and Methods” (priority 2008, published 2010).

Details: at six months, 16%-18% carbamide peroxide (Brunton et al., 2004)

Question: For `NC(N)=O.OO` [carbamide peroxide], which patients with rebound is on record?
Answer: 40%
